The term AC50 denotes the concentration giving half of the maximal activity seen.

Here are results for 42 compounds from ChEMBL document CHEMBL1201862, “PubChem BioAssay data set” (2004).

Each structure is given as a SMILES string. Activity calls are given as the source filed them. For most assays here, no stated cut-off is given here; in the data, actives have a measured EC50 and inactives only a lower limit.

Experiment [1] deals with T1, Streptokinase A (Streptococcus pyogenes serotype M1, UniProt P10520).
T1 sequence (P10520 whole entry): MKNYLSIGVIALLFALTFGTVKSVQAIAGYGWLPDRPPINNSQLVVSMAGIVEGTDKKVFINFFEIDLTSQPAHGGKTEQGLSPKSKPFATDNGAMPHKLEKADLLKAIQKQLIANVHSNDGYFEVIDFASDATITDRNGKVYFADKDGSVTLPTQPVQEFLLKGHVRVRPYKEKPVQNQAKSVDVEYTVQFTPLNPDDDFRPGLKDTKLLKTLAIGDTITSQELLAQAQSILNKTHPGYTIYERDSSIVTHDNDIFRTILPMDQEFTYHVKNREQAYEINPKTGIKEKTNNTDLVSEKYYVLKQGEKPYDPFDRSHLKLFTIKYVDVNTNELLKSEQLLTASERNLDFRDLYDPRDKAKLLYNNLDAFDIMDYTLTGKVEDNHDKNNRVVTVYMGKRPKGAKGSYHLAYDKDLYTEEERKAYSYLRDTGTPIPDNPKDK
Description: S. pyogenes streptokinase expression inhibitors, potency, dose response, plasminogen activation absorbance, OD405 (AID 1914).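 Further: secreted streptokinase activity via plasminogen activation per viability signal from cell pellet.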 Type of experiment: functional, Streptococcus pyogenes M1 GAS.

Experiment [2] has as its system Streptococcus sp. 'group A'. Description: growth inhibition of control SK(-) GAS strain, dose response, counter-screen for streptokinase expression inhibitor project, luminescence, kanamycin, BacTiterGlo, confirmation (AID 1900). Type of experiment: functional, organism-based.
Experiment [3] deals with Streptococcus. In words: Group A Streptococcus viability loss, dose response, counter-screen for streptokinase expression inhibitor project, luminescence, BacTiterGlo (AID 1915).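 Further: potency for reduction of bacterial viability or growth.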 Type of experiment: functional, organism-based. (In general: Counterscreens check selectivity or assay interference.)
The target of experiment [4] is Cytochrome P450 2D6 (Homo sapiens, UniProt P10635).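 Further: CYP2D6 member of a cytochrome P450 panel assay.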
A short description of experiment [5]: inhibitors of intracellular T. cruzi replication, confirmation, NIH3T3 host cells, beta-gal luminescence (AID 2044).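 Further: intracellular parasites grown in NIH/3T3 mouse fibroblasts as host cells; luminescent beta-galactosidase reporter signal from transgenic T. cruzi replicating inside host cells; inhibitors lower the luminescence signal.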 Type of experiment: functional, cell-based.
Experiment [6] is described as follows: cytotoxicity toward NIH3T3 fibroblasts, dose response, counter-screen, cell-based, ATP luminescence, mouse fibroblasts (AID 2010).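 Further: cells exposed to compound for about 90 hours before reading.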 Type of experiment: functional.
The target in experiment [7] is T2, Corticotropin-releasing factor receptor 2/Corticotropin-releasing factor-binding protein (Homo sapiens, UniProt P24387+Q13324).
T2 sequence (Q13324 whole entry): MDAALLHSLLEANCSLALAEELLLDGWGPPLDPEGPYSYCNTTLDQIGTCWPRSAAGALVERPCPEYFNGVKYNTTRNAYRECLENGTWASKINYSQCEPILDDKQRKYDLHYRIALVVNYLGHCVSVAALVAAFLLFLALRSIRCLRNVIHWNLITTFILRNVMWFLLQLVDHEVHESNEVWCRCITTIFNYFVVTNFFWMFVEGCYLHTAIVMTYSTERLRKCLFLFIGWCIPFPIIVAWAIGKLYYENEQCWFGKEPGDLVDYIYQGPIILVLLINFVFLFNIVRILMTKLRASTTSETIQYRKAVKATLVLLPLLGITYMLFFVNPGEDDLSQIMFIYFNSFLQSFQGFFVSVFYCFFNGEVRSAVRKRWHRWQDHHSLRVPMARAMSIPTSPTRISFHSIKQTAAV
T2 sequence (P24387 whole entry): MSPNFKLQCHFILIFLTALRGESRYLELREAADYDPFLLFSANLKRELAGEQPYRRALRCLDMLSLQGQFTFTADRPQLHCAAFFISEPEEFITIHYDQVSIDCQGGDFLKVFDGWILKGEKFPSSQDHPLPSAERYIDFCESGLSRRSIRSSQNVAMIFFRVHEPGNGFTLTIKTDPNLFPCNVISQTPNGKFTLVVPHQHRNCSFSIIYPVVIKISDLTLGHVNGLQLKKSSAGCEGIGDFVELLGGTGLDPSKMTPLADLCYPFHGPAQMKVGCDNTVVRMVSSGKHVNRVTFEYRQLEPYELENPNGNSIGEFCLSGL
Description: activators of CRF receptor 2 with binding protein – uHTS hits, confirmation (AID 602473). Type of experiment: functional. Conditions: read-out: EC50_Mean.

Sequence of Cytochrome P450 2D6 (P10635 whole entry): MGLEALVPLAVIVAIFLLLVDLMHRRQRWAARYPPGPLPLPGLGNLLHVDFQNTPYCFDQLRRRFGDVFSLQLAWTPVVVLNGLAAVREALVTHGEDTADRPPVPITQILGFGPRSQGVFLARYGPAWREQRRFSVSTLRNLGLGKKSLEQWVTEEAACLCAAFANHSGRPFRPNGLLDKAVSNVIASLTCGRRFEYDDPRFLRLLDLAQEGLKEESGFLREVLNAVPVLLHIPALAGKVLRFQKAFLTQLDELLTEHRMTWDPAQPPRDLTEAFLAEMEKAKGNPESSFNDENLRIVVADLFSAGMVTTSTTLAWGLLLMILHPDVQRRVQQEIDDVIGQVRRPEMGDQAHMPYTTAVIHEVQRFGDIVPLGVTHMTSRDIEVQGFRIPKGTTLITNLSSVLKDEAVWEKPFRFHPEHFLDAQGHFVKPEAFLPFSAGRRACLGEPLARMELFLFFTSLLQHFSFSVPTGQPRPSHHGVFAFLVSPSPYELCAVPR

`COc1ccccc1NC(=O)C(=O)NNC(=O)COc1ccc2ccccc2c1`: the results for the EC50 in experiment [1], in experiment [2] and in experiment [3] were > 150 µM (not active), 4.14 µM (active) and 17.7 µM (active), respectively.

On to `O=c1c2ccccc2c(-c2ccccc2)nn1-c1ccc(Cl)c(Cl)c1`, for which the AC50 in experiment [4] was 10 µM (inconclusive).

For the compound `Cc1cc(C)c2nc(N3C(=O)C(O)=C(C(=O)c4ccco4)C3c3ccco3)sc2c1` (stereo not drawn), the EC50 was 2.52 µM (active) in experiment [2] and 5.86 µM (active) in experiment [3].

`Cc1cccc(CNc2ncncc2-c2cccnc2)c1`: in experiment [4], the AC50 is 25.1 µM (inconclusive).

For the compound `O=C(Nc1cccc(F)c1)NC1CCN(Cc2ccccc2)CC1`, the EC50 in experiment [5] was 0.736 µM (active); in experiment [6] it was > 60 µM (not active).

Turning to `Cc1ccc2cc3cc(C(=O)N(CC(=O)NC4CCCC4)c4cccc(C)c4C)sc3nc2c1`, the EC50 in experiment [5] was 1.61 µM (active); in experiment [6], > 30 µM (not active).

In the case of `CC(=O)N(CCCN(C)C)c1nc2ccc(C)cc2s1`, the EC50 in experiment [5] was 0.236 µM (active); in experiment [6] it was > 60 µM (not active).

`CC(=O)Oc1ccccc1C1=NN(C(=O)/C=C/c2ccccc2)C(c2ccccc2)C1` (stereo not drawn): the results for the EC50 in experiment [1], in experiment [2] and in experiment [3] were > 150 µM (not active), 17.1 µM (active) and > 150 µM (not active), respectively.

As for `Cc1ccc(S(=O)(=O)Nc2cc(O)nc3c2CCC3)cc1`, the AC50 in experiment [4] was 2.51 µM (inconclusive).

In the case of `CC1CCN(C(=O)c2ccc3c(c2)NC(=O)/C(=C/c2ccccc2)S3)CC1`, the EC50 in experiment [1] was > 150 µM (not active); in experiment [2] it was 2.64 µM (active); in experiment [3], 6.87 µM (active).

In the case of `CCC(C)(C)n1nnnc1C(c1cccs1)N1CCN(c2nc3ccccc3s2)CC1` (stereo not drawn), the values for the EC50 in experiment [5] and in experiment [6] were 1.96 µM (active) and 8.58 µM (active), respectively.

As for `O=C(O)c1ccc(N=Nc2c(O)[nH]c3ccc(Br)cc23)cc1`, the EC50 in experiment [2] is 4.19 µM (active); in experiment [3], 8.12 µM (active).

`CC(=O)NC(=S)Nc1ccc(S(=O)(=O)N(C)Cc2ccccc2)cc1`: the EC50 in experiment [5] was 1.22 µM (active); in experiment [6], > 30 µM (not active).

Regarding `Cc1cc2nc(/C(C#N)=C\c3ccc(-c4ccccc4C(=O)O)o3)[nH]c2cc1C`, in experiment [7], the EC50 was 5.8 µM (active).

Consider `Clc1ccc(-c2[nH]nc3c2CCC3)cc1Cl`, for which the EC50 was > 150 µM (not active) in experiment [1], 8.42 µM (active) in experiment [2] and 13.9 µM (active) in experiment [3].

Turning to `Cc1cc(C)c2c(n1)sc1c(=O)n(CC(=O)c3ccccc3)cnc12`, the figures for the EC50 in experiment [1], in experiment [2] and in experiment [3] were > 150 µM (not active), 0.95 µM (active) and 5.59 µM (active), respectively.

In the case of `CCOC(=O)c1ccc(-c2ccc3c(=O)c4ccccc4n(C)c3c2)cc1F`, the EC50 is > 150 µM (not active) in experiment [1], 3.46 µM (active) in experiment [2] and > 150 µM (not active) in experiment [3].

For `Cc1cc2c(n1-c1ccc(Br)cc1)CC(C)(C)CC2=O`, the EC50 in experiment [5] is 2.05 µM (active); in experiment [6], > 60 µM (not active).

For `COc1ccccc1CNc1nc(-c2ccoc2)nc2ccccc12`, the AC50 in experiment [4] was 6.31 µM (active).

For the compound `COc1ccc(CN2CCCC(C(=O)c3ccc(Cl)cc3)C2)cc1Cn1cncn1` (stereo not drawn), the values for the EC50 in experiment [5] and in experiment [6] were 0.508 µM (active) and > 30 µM (not active), respectively.

For the compound `O=C(Nc1ccn(Cc2c(F)c(F)cc(F)c2F)n1)c1ccc(COc2ccccc2Cl)cc1`, the EC50 in experiment [5] was 0.867 µM (active); in experiment [6], > 60 µM (inconclusive).

As for `CN(CC(=O)Nc1ccc(S(=O)(=O)N2CCCC2)cc1)Cc1ccc(Cl)c(Cl)c1`, the EC50 in experiment [5] is 2.04 µM (active); in experiment [6], > 60 µM (not active).

For `Cc1ccc(OCc2ccc(C(=O)Nc3c(C)nn(Cc4c(F)c(F)c(F)c(F)c4F)c3C)o2)c([N+](=O)[O-])c1`, the EC50 is 25.6 µM (inconclusive) in experiment [1], 25.3 µM (active) in experiment [2] and > 150 µM (not active) in experiment [3].

With `O=C(NCc1ccccn1)Nc1ccc(F)c(Cl)c1`, the EC50 in experiment [1], in experiment [2] and in experiment [3] was > 150 µM (not active) each time.

`COc1ccc(-n2nc(C)c3c(O)c4c(nc32)CCCC4)cc1`: the EC50 in experiment [5] was 0.21 µM (active); in experiment [6], > 60 µM (not active).

Take `CN1CCN(c2ccc(S(=O)(=O)N3CCCCC3)cc2NC(=O)COc2ccc(F)cc2)CC1`: the EC50 is 0.538 µM (active) in experiment [5] and > 60 µM (not active) in experiment [6].

`CC(CCc1ccccc1)NC(=O)c1ccc(NC(=O)c2cccc(Br)c2)cc1` (stereo not drawn): the EC50 in experiment [5] was 2.02 µM (active); in experiment [6] it was > 60 µM (not active).

In the case of `Cc1ccc(-c2cc(C(F)F)nc(N3CCC(C)CC3)n2)cc1`, the EC50 in experiment [1] was > 150 µM (not active); in experiment [2], 6.63 µM (active); in experiment [3], 10 µM (active).

As to `O=C(COc1ccccc1C(=O)NCc1ccncc1)Nc1ccc(Br)cc1`, the EC50 was 2.15 µM (active) in experiment [5] and > 60 µM (not active) in experiment [6].

`CCC(=O)Nc1ccc(-c2nnc(-c3ccccc3)o2)cc1`: the figures for the EC50 in experiment [5] and in experiment [6] were 1.55 µM (active) and > 60 µM (not active), respectively.

Consider `CN(CC1CCCO1)S(=O)(=O)c1ccc(C(=O)Nc2nnc(-c3ccccc3)o2)cc1` (stereo not drawn), for which the EC50 in experiment [2] is 4.14 µM (active); in experiment [3], 12.2 µM (active).

Regarding `COc1ncc2nc(C)c(=O)n(Cc3cccs3)c2n1`, the AC50 in experiment [4] was 25.1 µM (inconclusive).

In the case of `CCC(C)Sc1cc(-c2nc3ccc(C)cn3c2NCc2ccccc2)ccc1OC` (stereo not drawn), the EC50 in experiment [1] was 2.75 µM (active); in experiment [2], 2.32 µM (active); in experiment [3] it was 9.32 µM (active).

Turning to `OCC1(Cc2ccc(Cl)cc2)CCN(Cc2ccc(Oc3ncccn3)cc2)CC1`, the EC50 was 0.966 µM (active) in experiment [5] and > 60 µM (inconclusive) in experiment [6].

In the case of `CN(C)CCCNc1oc(-c2ccccc2Cl)nc1S(=O)(=O)c1ccc(F)cc1`, the values for the EC50 in experiment [5] and in experiment [6] were 0.135 µM (active) and 24.1 µM (active), respectively.

Regarding `c1ccc(Cc2noc(CN3CCN(CCOc4ccccc4)CC3)n2)cc1`, the EC50 in experiment [5] was 1.09 µM (active); in experiment [6], > 60 µM (not active).

Regarding `Cc1ccc([N+](=O)[O-])cc1NC(=O)CN(C1CCCCC1)S(=O)(=O)c1ccc(Cl)cc1`, the EC50 in experiment [5] was 3.08 µM (active); in experiment [6], > 60 µM (not active).

Regarding `O=C(NCc1ccc(OC(F)(F)F)cc1)c1cccc2c1C(=O)c1ccc(N3CCCC3)cc1S2(=O)=O`, the EC50 in experiment [7] is 11.8 µM (active).

In the case of `CC(Oc1ccc(Cl)cc1)C(=O)Nc1ccccc1N1CCOCC1` (stereo not drawn), the EC50 in experiment [7] is 7.37 µM (active).

`COc1ccccc1N(CC(=O)N1CCCCC1C)S(=O)(=O)c1ccc(Cl)cc1` (stereo not drawn): in experiment [7], the EC50 was 5.95 µM (active).

Take `CCn1c2ccccc2c2cc(NC(=O)C/C(C)=N/NC(=O)c3ccccc3N)ccc21`: the AC50 in experiment [4] was 25.1 µM (inconclusive).

As for `CNc1nc(N(C)C)nc(N(C)C)n1` [PENTAMETHYL MELAMINE], the EC50 in experiment [7] is > 53 µM (inactive).
